Results on 16 compounds are retold here after patent US11014904B2, “1,2,4-triazine-3-amine derivative, preparation method therefor, and use thereof in medicine” (Jiangsu Hengrui Medicine Co., Ltd., priority 2017, dated 2021).

What all share (type): cell-based
The target of assay [1] is T1, adenosine A1 receptor (A1R) (Homo sapiens, UniProt P30542).
T1 construct: expressed in transfected cells; host or cells: CHO-K1
T1 sequence (P30542 1-326): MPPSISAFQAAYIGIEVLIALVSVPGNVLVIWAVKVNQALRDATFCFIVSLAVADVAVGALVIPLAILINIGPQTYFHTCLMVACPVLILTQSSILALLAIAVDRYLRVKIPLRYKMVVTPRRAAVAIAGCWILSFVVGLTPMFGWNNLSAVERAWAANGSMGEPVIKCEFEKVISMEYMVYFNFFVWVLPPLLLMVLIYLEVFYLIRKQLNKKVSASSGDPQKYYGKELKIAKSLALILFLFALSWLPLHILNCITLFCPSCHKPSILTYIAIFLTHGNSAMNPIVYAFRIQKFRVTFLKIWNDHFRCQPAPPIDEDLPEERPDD
Briefly: Inhibition of the adenosine A1 receptor cAMP signaling pathway in CHO-K1/A1R cells (HTRF). The note with it: for IC50: CHO-K1/A1R cells, cAMP, forskolin 10 μM, CPA 10 nM; for IC50 ratio (A1R/A2aR): selectivity A1R over A2aR. An excerpt: (§1) Determination of the inhibition activity of the compounds of the present invention on the adenosine A2a receptor (A2aR) cAMP signaling pathway, the adenosine A2b receptor (A2bR) cAMP signaling pathway, the adenosine A1 receptor (A1R) cAMP signaling pathway and the adenosine A3 receptor (A3R) cAMP signaling pathway.
(§2) The inhibition activity of the compounds of the present invention on the adenosine A2a receptor (A2aR) cAMP signaling pathway, the adenosine A2b receptor cAMP signaling pathway, the adenosine A1 receptor cAMP signaling pathway and the adenosine A3 receptor cAMP signaling pathway was determined by the following method. The experimental method is briefly described as follows:
2.3 Adenosine A1 Receptor
CHO-K1/A1R cells were cultured in DMEM/F12 medium containing 10% fetal bovine serum and 1 mg/ml G418. The cells were digested with the cell separation buffer during the experiment. The cells were then resuspended in the balanced salt buffer containing 20 mM HEPES and 0.1% bovine serum albumin and counted, and the cell density was adjusted to 5×10^5 cells/ml. In the 384-well plate, each well was added with 12.5 μl of cell suspension, and 6.25 μl of test compound (4× concentration) formulated with the balanced salt buffer containing 20 mM HEPES, 0.1% bovine serum albumin, 54 μM rolipram and 2.7 U/ml adenosine deaminase, and the plate was incubated at room temperature for 30 minutes. Each well was then added with 6.25 μl of forskolin and N6-cyclopentyladenosine (4× concentration) formulated with the balanced salt buffer containing 20 mM HEPES, 0.1% bovine serum albumin, 54 μM rolipram and 2.7 U/ml adenosine deaminase, and the plate was incubated at room temperature for 30 minutes. The final concentrations of the compounds were: 100000, 10000, 1000, 100, 10, 1, 0.1 and 0 nM. The final concentrations of forskolin was 10 μM. The final concentrations of CPA was 10 nM. Intracellular cAMP concentration was detected with the cAMP dynamic 2 kit. cAMP-d2 and Anti-cAMP-Eu-Cryptate were diluted respectively with the cAMP lysis buffer at a ratio of 1:4. Each well was added with 12.5 μl of diluted cAMP-d2, followed by addition of 12.5 μl of diluted Anti-cAMP-Eu-Cryptate, and the plate was incubated at room temperature in the dark for 1 hour. The HTRF signal values were read by the PHERAstar multi-function microplate reader.

The target of assay [2] is T2, adenosine A2a receptor (A2aR) (Homo sapiens, UniProt P29274).
T2 construct: expressed in transfected cells; host or cells: CHO-K1
Put plainly: Inhibition of the adenosine A2a receptor cAMP signaling pathway in CHO-K1/A2aR cells (HTRF). The settings on record: CHO-K1/A2aR cells, cAMP, NECA 20 nM; Table 1.
From the text: as §1, §2
2.1 Adenosine A2a receptor
CHO-K1/A2aR cells were cultured in DMEM/F12 medium containing 10% fetal bovine serum and 800 μg/ml bleomycin. The cells were digested with the cell separation buffer during the experiment. The cells were resuspended in the balanced salt buffer containing 20 mM HEPES and 0.1% bovine serum albumin and counted, and the cell density was adjusted to 10^6 cells/ml. In the 384-well plate, each well was added with 5 μl of cell suspension, and 2.5 μl of test compound (4× concentration) formulated with the balanced salt buffer containing 20 mM HEPES, 0.1% bovine serum albumin, 54 μM rolipram and 2.7 U/ml adenosine deaminase, and the plate was incubated at room temperature for 30 minutes. Each well was then added with 2.5 μl of […] (4× concentration) formulated with the balanced salt buffer containing 20 mM HEPES, 0.1% bovine serum albumin, 54 μM rolipram and 2.7 U/ml adenosine deaminase, and the plate was incubated at room temperature for 30 minutes. The final concentrations of the compounds were: 10000, 2000, 400, 80, 16, 3.2, 0.64, 0.128, 0.0256, 0.00512, and 0.001024 nM. The final concentration of […] was 20 nM. Intracellular cAMP concentration was detected with the cAMP dynamic 2 kit. cAMP-d2 and Anti-cAMP-Eu-Cryptate were diluted respectively with the cAMP lysis buffer at a ratio of 1:4. Each well was added with 5 μl of diluted cAMP-d2, followed by addition of 5 μl of diluted Anti-cAMP-Eu-Cryptate, and the plate was incubated at room temperature in the dark for 1 hour. The HTRF signal values were read by the PHERAstar multi-function microplate reader.
(In general: Time-resolved FRET reads energy transfer from a long-lived donor to a nearby acceptor.)

Assay [3] addresses T3, adenosine A3 receptor (A3R) (Homo sapiens, UniProt P0DMS8).
T3 construct: expressed in transfected cells; host or cells: CHO-K1
T3 sequence (P0DMS8 1-318): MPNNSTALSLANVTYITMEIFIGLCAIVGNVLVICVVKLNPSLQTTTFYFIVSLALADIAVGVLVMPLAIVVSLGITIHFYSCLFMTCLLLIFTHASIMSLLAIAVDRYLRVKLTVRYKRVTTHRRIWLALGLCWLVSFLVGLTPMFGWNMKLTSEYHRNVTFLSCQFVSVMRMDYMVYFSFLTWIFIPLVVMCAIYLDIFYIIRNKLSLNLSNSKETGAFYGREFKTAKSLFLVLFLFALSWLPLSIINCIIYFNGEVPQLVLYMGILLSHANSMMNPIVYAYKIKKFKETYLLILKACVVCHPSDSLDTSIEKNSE
Put plainly: Inhibition of the adenosine A3 receptor cAMP signaling pathway in CHO-K1/A3R cells (HTRF). The settings on record: for IC50: CHO-K1/A3R cells, cAMP, forskolin 10 μM, 2Cl-IB-MECA 5 nM; for IC50 ratio (A3R/A2aR): selectivity A3R over A2aR.
From the text: as §1, §2
2.4 Adenosine A3 Receptor
CHO-K1/A3R cells were cultured in DMEM/F12 medium containing 10% fetal bovine serum and 10 μg/ml puromycin. The cells were digested with the cell separation buffer during the experiment. The cells were resuspended in the balanced salt buffer containing 20 mM HEPES and 0.1% bovine serum albumin and counted, and the cell density was adjusted to 5×10^5 cells/ml. In the 384-well plate, each well was added with 12.5 μl of cell suspension, and 6.25 μl of test compound (4× concentration) formulated with the balanced salt buffer containing 20 mM HEPES, 0.1% bovine serum albumin, 54 μM rolipram and 2.7 U/ml adenosine deaminase, and the plate was incubated at room temperature for 30 minutes. Each well was then added with 6.25 μl of forskolin and 2Cl-IB-MECA (4× concentration) formulated with the balanced salt buffer containing 20 mM HEPES, 0.1% bovine serum albumin, 54 μM rolipram and 2.7 U/ml adenosine deaminase, and the plate was incubated at room temperature for 30 minutes. The final concentrations of the compounds were: 100000, 10000, 1000, 100, 10, 1, 0.1 and 0 nM. The final concentrations of forskolin was 10 μM. The final concentration of 2Cl-IB-MECA was 5 nM. Intracellular cAMP concentration was detected with the cAMP dynamic 2 kit. cAMP-d2 and Anti-cAMP-Eu-Cryptate were diluted respectively with the cAMP lysis buffer at a ratio of 1:4. Each well was added with 12.5 μl of diluted cAMP-d2, followed by addition of 12.5 μl of diluted Anti-cAMP-Eu-Cryptate, and the plate was incubated at room temperature in the dark for 1 hour. The HTRF signal values were read by the PHERAstar multi-function microplate reader.

T2 sequence (P29274 whole entry): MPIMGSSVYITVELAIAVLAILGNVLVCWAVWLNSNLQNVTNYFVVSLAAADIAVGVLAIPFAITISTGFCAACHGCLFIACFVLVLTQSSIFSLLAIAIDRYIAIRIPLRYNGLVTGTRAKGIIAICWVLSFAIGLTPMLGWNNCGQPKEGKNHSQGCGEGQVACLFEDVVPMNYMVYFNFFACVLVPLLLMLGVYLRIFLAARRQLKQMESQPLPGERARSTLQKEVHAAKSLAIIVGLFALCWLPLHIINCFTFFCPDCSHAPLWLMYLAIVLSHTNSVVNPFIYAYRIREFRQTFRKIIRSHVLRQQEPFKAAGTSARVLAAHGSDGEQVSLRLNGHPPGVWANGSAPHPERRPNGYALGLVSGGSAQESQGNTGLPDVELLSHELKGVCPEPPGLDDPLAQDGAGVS

Regarding `Cc1cc(-c2nnc(N)nc2-c2ccccc2)cc2cccnc12` [Example 1, 6-(8-Methylquinolin-6-yl)-5-phenyl-1,2,4-triazin-3-amine], in assay [1], inhibition was half-maximal at 121 nM (IC50) and the “IC50 ratio (A1R/A2aR)” value was 242. Also, half-maximal inhibition in assay [2] (IC50) required 0.5 nM. Moreover, in assay [3], the IC50 was > 10000 nM and the “IC50 ratio (A3R/A2aR)” value was >10^4.
`Cc1cc(-c2nnc(N)nc2-c2ccco2)cc2cccnc12` [Example 6, 5-(Furan-2-yl)-6-(8-methylquinolin-6-yl)-1,2,4-triazin-3-amine] gave a concentration for half-maximal inhibition (IC50) in assay [2] of 1.3 nM. This counts as single-digit nanomolar.
On the same count and under the same terms, the same measure for `Cc1cc(-c2nnc(N)nc2-c2cccs2)cc2cccnc12` [Example 7, 6-(8-Methylquinolin-6-yl)-5-(thiophen-2-yl)-1,2,4-triazin-3-amine]: 3.1 nM; for `Cc1cc(-c2nnc(N)nc2-c2ccc(F)cc2)cc2cccnc12` [Example 8, 5-(4-Fluorophenyl)-6-(8-methylquinolin-6-yl)-1,2,4-triazin-3-amine]: 3.6 nM.
For the compound `Nc1nnc(-c2ccc3ccccc3c2)c(-c2ccccc2)n1` [Example 13, 6-(Naphthalen-2-yl)-5-phenyl-1,2,4-triazin-3-amine, reference compound], the IC50 in assay [2] was determined as 158 nM. This IC50 is about 44-fold higher than that of the compound before.
Still for that read-out and setting: the same measure for `Nc1nnc(-c2ccc3ncc(F)cc3c2)c(-c2ccccc2)n1` [Example 24, 6-(3-Fluoroquinolin-6-yl)-5-phenyl-1,2,4-triazin-3-amine]: 0.9 nM; for `Nc1nnc(-c2cc(F)c3ncccc3c2)c(-c2cccc(F)c2)n1` [Example 26, 5-(3-Fluorophenyl)-6-(8-fluoroquinolin-6-yl)-1,2,4-triazin-3-amine]: 1.8 nM; for `Nc1nnc(-c2ccc3nccc(Cl)c3c2)c(-c2ccc(F)cc2)n1` [Example 27, 6-(4-Chloroquinolin-6-yl)-5-(4-fluorophenyl)-1,2,4-triazin-3-amine]: 2.2 nM.
On the same count and under the same terms, the same measure for `Cc1cnc2ccc(-c3nnc(N)nc3-c3ccccc3)cc2c1` [Example 28, 6-(3-Methylquinolin-6-yl)-5-phenyl-1,2,4-triazin-3-amine]: 3 nM; for `Nc1nnc(-c2ccc3ncncc3c2)c(-c2ccccc2)n1` [Example 29, 5-Phenyl-6-(quinazolin-6-yl)-1,2,4-triazin-3-amine]: 3.5 nM.
Regarding `Nc1nnc(-c2ccc3ncccc3c2)c(-c2ccc(F)cc2)n1` [Example 30, 5-(4-Fluorophenyl)-6-(quinolin-6-yl)-1,2,4-triazin-3-amine], it took 3.7 nM to reach half-maximal inhibition in assay [2] (IC50).
As to `CCc1ccnc2c(F)cc(-c3nnc(N)nc3-c3ccccc3)cc12` [Example 47, 6-(4-Ethyl-8-fluoroquinolin-6-yl)-5-phenyl-1,2,4-triazin-3-amine], in assay [2], the IC50 worked out at 1.6 nM.
For the compound `Cc1cc(-c2nc(N)nnc2-c2ccc3nccc(C)c3c2)ccn1` [Example 48, 5-(2-Methylpyridin-4-yl)-6-(4-methylquinolin-6-yl)-1,2,4-triazin-3-amine], the 50% inhibitory concentration (IC50) in assay [1] was 3280 nM; in assay [2] it was 2.4 nM; in assay [3], > 10000 nM. Moreover, the “IC50 ratio (A1R/A2aR)” value in assay [1] was found to be 1365. In addition, in assay [3], the “IC50 ratio (A3R/A2aR)” value is >10^3.
`Nc1nnc(-c2ccc3nccc(C4CC4)c3c2)c(-c2ccc(F)cc2)n1` [Example 49, 6-(4-Cyclopropylquinolin-6-yl)-5-(4-fluorophenyl)-1,2,4-triazin-3-amine]: in assay [2], the midpoint of inhibition, the IC50, lay at 2.5 nM.
On to `Cc1ncnc2c(F)cc(-c3nnc(N)nc3-c3ccc(F)cc3)cc12` [Example 50, 6-(8-Fluoro-4-methylquinazolin-6-yl)-5-(4-fluorophenyl)-1,2,4-triazin-3-amine], for which, in assay [1], half-maximal inhibition (IC50) was put at 3260 nM and the “IC50 ratio (A1R/A2aR)” value came out at 1018. The IC50 in assay [2] came to 3.2 nM. Also, in assay [3], the IC50 is > 10000 nM and the “IC50 ratio (A3R/A2aR)” value is >10^3.
The compound `Nc1nnc(-c2ccc3nccc(C(F)F)c3c2)c(-c2ccc(F)cc2)n1` [Example 51, 6-(4-(Difluoromethyl)quinolin-6-yl)-5-(4-fluorophenyl)-1,2,4-triazin-3-amine] showed an IC50 in assay [2] of 3.5 nM.

Broadly, the IC50 is the concentration needed to halve the response being measured. Higher therefore signals weaker potency.
